In publication PMC10914731, “Homo-BacPROTAC-induced degradation of ClpC1 as a strategy against drug-resistant mycobacteria” (Nature Communications, 2024):
Values after ≈ are worked out from the molar mass of the structure shown. Values joined by “and” are separate entries in the source; they are usually repeats but may differ in a detail not shown here. Equal entries are not always repeated. Where two headings read alike, the source gives them in different places. *1 amine or outer side, *2 acyl side, *3 side chain or, on linkers, in order; H or OH if unused. Where a SMILES comes first, the peptide text is derived from it. [ ]: non-standard residue; d: D form. X1 = C#CCn1cc(C[C@H](N[*:1])C(=O)[*:2])c2ccccc21; NMeLeu(5-OH,4R) = CN[C@@H](C[C@@H](C)CO)C(=O)O; Phe(βR-OMe) = CO[C@H](c1ccccc1)[C@H](N)C(=O)O; NMeL = CN[C@@H](CC(C)C)C(=O)O

Experiments:
in vivo = assay type: in vivo, BALB/cAnNCrl mice
Procedure: The in-life experimental procedures were conducted in strict compliance with German and European animal welfare legislation in an AAALAC-accredited facility. Male BALB/cAnNCrl mice (Charles River Laboratories Research Models and Services, 97633 Sulzfeld, Germany) were used. Animals were 9 weeks old at dosing with a body weight of 21.6–24.3 g. Animals were delivered free of pathogens according to FELASA recommendations with a health certificate provided by the breeder. Upon receipt, the state of health and sex was checked. Animals acclimatized for at least 5 days before the commencement of the in-life phase. During acclimation, animals were group-housed in individually ventilated cages, on birch wood granulate bedding with species-specific enrichment (nesting material, mouse igloo, gnawing wood). During experimental conduct, animals were housed in conventional cages with elevated grid floors. Grid floor was used to avoid contamination with test item material excreted via urine and feces and subsequent reuptake during fur grooming. No bedding and enrichment were provided except a cage divider, which can be used as a shelter. Animals always had unlimited access to food and water and received a pelleted, total pathogen-free maintenance diet and tap drinking water, sterilized by filter.
On the day before dosing, test item(s) were suspended in kleptose (20% in WFI) under continuous stirring (3.0 mg/ml). Following 2 min vortexing and 1 h stirring, the formulation was sonicated at 60 °C for 30 min and stirred at ambient temperature overnight. Before dosing, the formulation was vortexed for 2 min followed by ultraturrax treatment for 2 min.
Male BALB/cAnNCrl mice (n = 3 per test item and administration route) received a bolus dose of the formulated test item(s) (1 mg/kg iv, 30 mg/kg po) at t = 0 h, and whole blood samples were collected subsequently (35 µl at 0.1 (iv) / 0.25 (po), 0.5, 1, 2, 4, 6 h; 600 µl at sacrifice after 24 h). Animals were euthanized by exsanguination in deep isoflurane anesthesia. Whole blood samples were immediately stored on ice at about 4 °C. Plasma was separated by centrifugation at approximately 10,000 × g for 5 m at +4 °C. Centrifugation of each blood sample was started within 10 m after collection. A single aliquot of at least 15 µL of plasma was prepared and immediately stored at −20 ± 5 °C.
Sample proteins were precipitated with ACN (1 + 12, v/v) containing internal standard, and supernatants analyzed by quantitative UPLC-MS/MS: Phenomenex Luna Omega C18, 2.1 × 50 mm, 1.6 µm, 40 °C, gradient between 10% - 90% ACN with 0.1% formic acid. LogD determination: Lipophilicity of the test items, expressed as chromLogD7.5, was assessed by measuring their chromatographic retention times on C18-material. The chromatographic retention versus logD7.5 values of a series of thirteen n-alkan-2-ones (2-butanone – 2-hexadecanone) served as lipophilicity calibration.

Pseudomonas aeruginosa = assay: MIC ESKAPES panel, Pseudomonas aeruginosa; assay type: cell-based
Procedure: (§1) Minimum inhibitory concentration (MIC) against ESKAPES panel of Gram positive and Gram negative pathogens (Enterococcus faecium, Staphylococcus aureus, Klebsiella pneumoniae, Acinetobacter baumannii, Pseudomonas aeruginosa, Enterobacter cloacae and Salmonella typhimurium [ESKAPES panel]) were determined at the FNDR by the standard broth dilution method [CLSI, M100]. […] Mueller Hinton broth (MHB) medium was used to grow ESKAPES panel strains. The individual cultures were added as 200 μL (inoculum of 3–7 × 10^5 cfu/ml) to the respective assay plates in each well to all columns, except the media control (200 μL of medium). […] The assay plates were incubated at 37 °C, and the results were noted on the 2nd day as turbidometric readout. The clear wells indicated inhibition of growth, while the turbid wells indicated uninhibited growth.

Mtb H37Rv = assay: Minimum bactericidal concentration (MBC), Mtb H37Rv; assay type: cell-based, Mycobacterium tuberculosis; conditions: Mycobacterium tuberculosis, H37RV
Klebsiella pneumoniae = assay: MIC ESKAPES panel, Klebsiella pneumoniae; assay type: cell-based
Procedure: as §1

Mtb (moxR) FNDR-M1 = assay: microbe, parasite or virus in culture; assay type: cell-based
Mycobacterium abscessus = assay: microbe, parasite or virus in culture; assay type: cell-based
Mtb ATCC 35825 = assay: microbe, parasite or virus in culture; assay type: cell-based
[1] = biological target: His6-tagged ClpC1-NTD substrate, M. smegmatis ClpC1P1P2 (UniProt A0R574+P9WPC9); assay: biochemical; assay type: biochemical; conditions: for DC50: Msm; for % Response / ClpC1-NTD peak area: Figure 4a source data, well replicates
[2] = Microsomal stability, human; assay type: in vitro ADME
Summary of the method: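 1 µmol/l cpd + 0.5 mg/ml microsomes, Tris-HCl 100 mM pH 7.5 / MgCl2 6.5 mM / NADPH 1 mM, 37 °C. Timed acetonitrile quench, spin, supernatant by HPLC-MS/MS. t1/2 from first-order decay → clearance %Qh, well-stirred model.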

Acinetobacter baumannii = assay: MIC ESKAPES panel, Acinetobacter baumannii; assay type: cell-based
Procedure: as §1

[3] = oral gavage 30 mg/kg, mice, Mean, BLOQ <1.00 nmol/L
[4] = oral gavage, individual animals 1-3
[5] = oral gavage, individual animals 1-3, BLOQ <1.00 nmol/L
[6] = Gram-Negative Bacteria, replicates 1-3

Sequence of His6-tagged ClpC1-NTD substrate, M. smegmatis ClpC1P1P2 (P9WPC9 1-156, looked up, natural form): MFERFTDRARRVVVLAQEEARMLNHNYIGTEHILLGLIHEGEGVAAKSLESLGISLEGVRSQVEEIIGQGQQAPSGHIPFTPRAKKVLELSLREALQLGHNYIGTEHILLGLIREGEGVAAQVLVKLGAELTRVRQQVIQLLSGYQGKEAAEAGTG
Sequence of His6-tagged ClpC1-NTD substrate, M. smegmatis ClpC1P1P2 (A0R574 whole entry): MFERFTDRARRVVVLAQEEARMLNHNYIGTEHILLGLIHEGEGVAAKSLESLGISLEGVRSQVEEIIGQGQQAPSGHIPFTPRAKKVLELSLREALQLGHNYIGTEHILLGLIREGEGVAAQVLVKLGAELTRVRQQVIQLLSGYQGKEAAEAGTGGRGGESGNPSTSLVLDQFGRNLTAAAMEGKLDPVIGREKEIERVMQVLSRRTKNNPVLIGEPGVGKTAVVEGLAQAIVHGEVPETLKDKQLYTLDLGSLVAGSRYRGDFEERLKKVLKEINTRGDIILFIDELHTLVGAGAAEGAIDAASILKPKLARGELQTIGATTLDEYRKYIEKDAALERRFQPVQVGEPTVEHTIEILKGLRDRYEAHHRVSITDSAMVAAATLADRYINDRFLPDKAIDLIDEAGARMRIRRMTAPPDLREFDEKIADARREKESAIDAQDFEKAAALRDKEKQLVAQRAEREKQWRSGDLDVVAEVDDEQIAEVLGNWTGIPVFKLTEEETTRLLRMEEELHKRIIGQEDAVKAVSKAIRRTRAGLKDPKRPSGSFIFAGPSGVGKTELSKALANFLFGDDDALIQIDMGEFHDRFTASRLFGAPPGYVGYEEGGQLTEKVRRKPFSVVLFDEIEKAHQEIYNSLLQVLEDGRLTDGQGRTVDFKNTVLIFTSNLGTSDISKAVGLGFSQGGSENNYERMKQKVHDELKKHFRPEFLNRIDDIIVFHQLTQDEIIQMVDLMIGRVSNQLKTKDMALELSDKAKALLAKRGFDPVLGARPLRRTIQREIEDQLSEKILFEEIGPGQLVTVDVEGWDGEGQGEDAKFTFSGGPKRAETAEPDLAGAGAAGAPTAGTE

C#CCn1cc(C[C@@H]2NC(=O)[C@H](C(C)C)NC(=O)[C@H](CC(C)C)N(C)C(=O)[C@H](C(C)C)NC(=O)[C@H]([C@H](OC)c3ccccc3)NC(=O)[C@H](C)NC(=O)[C@H](C[C@@H](C)CO)N(C)C2=O)c2ccccc21 [Compound 5] (cyclo(A[Phe(βR-OMe)]V[NMeL]V[X1][NMeLeu(5-OH,4R)]))
half-life (in vivo; male, BALB/cAnNCrl, mouse, in vivo, po, […], oral gavage, individual animals 1-3): 36.5 min | tmax (in vivo; male, BALB/cAnNCrl, mouse, in vivo, po, […], oral gavage, individual animals 1-3, read-out: tmax): 60 min | half-life (in vivo; male, BALB/cAnNCrl, mouse, in vivo, po, […], oral gavage, mice, Mean): 34.7 min | tmax (in vivo; male, BALB/cAnNCrl, mouse, in vivo, po, […], oral gavage, mice, Mean, read-out: tmax): 100 min | Plasma concentration 24 h (in vivo; mouse, in vivo, po): BLOQ | Plasma concentration 0.5 h (in vivo; [3]): 11.7 nM | Plasma concentration 1 h (in vivo; [3]): 15.5 nM | Plasma concentration 2 h (in vivo; [3]): 18.0 nM | Plasma concentration 4 h (in vivo; [3]): 1.62 nM | Plasma concentration 6 h (in vivo; [3]): 1.76 nM | Plasma concentration 24 h (in vivo; [3]): 4.22 nM | Plasma concentration […] (in vivo; [3]): 12.2 nM | AUC0-inf/Dose (in vivo; [4]): 3.14 h*nM/nmol/kg and 1.57 h*nM/nmol/kg and 1.80 h*nM/nmol/kg | AUC0-t/Dose (in vivo; [4]): 3.02 h*nM/nmol/kg and 1.53 h*nM/nmol/kg and 1.74 h*nM/nmol/kg | Cmax/Dose (in vivo; [4]): 0.480 nM/nmol/kg and 0.558 nM/nmol/kg and 0.684 nM/nmol/kg | t1/2 (in vivo; [4]): 34.6 min and 33.1 min | tmax (in vivo; [4]): 120 min | Plasma concentration 0.5 h (in vivo; [5]): 13.0 nM and 10.7 nM and 11.4 nM | Plasma concentration 1 h (in vivo; [5]): 15.3 nM and 15.7 nM and 15.5 nM | Plasma concentration 2 h (in vivo; [5]): 14.5 nM and 17.8 nM and 21.8 nM | Plasma concentration 4 h (in vivo; [5]): 1.49 nM and 1.61 nM and 1.76 nM | Plasma concentration 6 h (in vivo; [5]): 1.54 nM and 1.59 nM and 2.14 nM | Plasma concentration 24 h (in vivo; [5]): 4.22 nM | Plasma concentration […] (in vivo; [5]): 14.2 nM and 11.7 nM and 10.6 nM | BA (in vivo; oral gavage, mice (compound 12: from Animal 2 only; compound 6: maximum potential value)): 1.2% | AUC0-inf/Dose (in vivo; oral gavage, mice, Mean): 2.17 h*nM/nmol/kg | Cmax/Dose (in vivo; oral gavage, mice, Mean): 0.574 nM/nmol/kg | AUC0-t/Dose (in vivo; oral gavage, mice, Mean (compound 6: maximum potential value with 1 nM for each time point)): 2.10 h*nM/nmol/kg | MIC (Pseudomonas aeruginosa; [6]): >50 µM | MIC (Pseudomonas aeruginosa; Pseudomonas aeruginosa, Gram negative, n = 3 well replicates): > 50 µM | MIC (Pseudomonas aeruginosa; Pseudomonas aeruginosa, Gram-Negative Bacteria, replicates 1-3): > 47 µg/mL | MBC (Mtb H37Rv; read-out: MBC (from Set 3) Mtb H37Rv): 6.25 µM and 5.88 µg/mL | MBC (Mtb H37Rv; individual example, read-out: MBC Mtb H37Rv): 6.3 µM and 5.9 µg/mL | MIC (Klebsiella pneumoniae; [6]): >50 µM | MIC (Klebsiella pneumoniae; Klebsiella pneumoniae, Gram negative, n = 3 well replicates): > 50 µM | MIC (Klebsiella pneumoniae; Klebsiella pneumoniae, Gram-Negative Bacteria, replicates 1-3): > 47 µg/mL | MIC (Mtb (moxR) FNDR-M1; M. tuberculosis FNDR-M1, single well replicates): 0.391 µM and 0.781 µM | MIC (Mtb (moxR) FNDR-M1; Mycobacterium tuberculosis, M. tuberculosis FNDR-M1, single well replicates): 0.781 µM (≈ 0.735 µg/mL) | MIC (Mtb (moxR) FNDR-M1; Mycobacterium tuberculosis, Mtb (moxR) FNDR-M1, mean ± SD, n = 3 well replicates): 0.7 ± 0.2 µM (≈ 0.659 µg/mL) | MIC (µg/ml) Mycobacterium abscessus (Mycobacterium abscessus; Experiment 2, three replicate columns): 5.88 µg/mL (≈ 6.25 µM) | MIC (Mycobacterium abscessus; Experiment 2, three replicate columns, read-out: MIC (µM) Mycobacterium abscessus): 6.25 µM | MIC (Mycobacterium abscessus; Mycobacteroides abscessus, Experiment 1, read-out: MIC Mycobacterium abscessus): 3.1 µM and 2.9 µg/mL | MIC (Mycobacterium abscessus; Mycobacteroides abscessus, Experiment 2, three replicate columns, read-out: MIC (µM) Mycobacterium abscessus): 6.25 µM | MIC (Mycobacterium abscessus; Mycobacteroides abscessus, Experiment 2, three replicate columns, read-out: MIC (µg/ml) Mycobacterium abscessus): 5.88 µg/mL | MIC (Mycobacterium abscessus; Mycobacteroides abscessus, mean ± SD, read-out: MIC Mycobacterium abscessus): 5.5 ± 1.6 µM | MIC (Mtb ATCC 35825; Mycobacterium tuberculosis, ATCC35825, mean, n = 2 well replicates): 0.2 µM and 0.2 µg/mL | MIC (Mtb ATCC 35825; Mycobacterium tuberculosis, ATCC35825, single well replicates): 0.18 µg/mL and 0.19 µM | MIC (Mtb ATCC 35825; single well replicates): 0.19 µM (≈ 0.179 µg/mL) | MIC Mtb ATCC 35825 (Mtb ATCC 35825; single well replicates): 0.18 µg/mL (≈ 0.191 µM) | DC50 ([1]; Measurement 1-6, read-out: DC50, single measurements): > 100 µM | DC50 ([1]; mean of the measurements, read-out: DC50, Mean): > 100 µM | degradation of the His6-tagged ClpC1-NTD substrate ([1]; cell-free, result in words): did not cause any degradation | % Response ([1]; conc. 0.4 µM): 116.842% and 113.028% and 105.03% and 119.052% and 111.716% and 114.137% and 123.793% and 118.108% and 117.25% | ClpC1-NTD peak area ([1]; conc. 0.4 µM): 640826 and 655003 and 1857813 and 1613203 and 1512289 and 674239 and 595770 and 768891 and 644662 | % Response ([1]; conc. 33.3 µM): 90.9541% and 97.3128% and 94.2061% and 106.414% and 99.6024% and 104.896% and 117.254% and 102.794% and 105.872% | ClpC1-NTD peak area ([1]; conc. 33.3 µM): 584244 and 637952 and 1853168 and 1510772 and 1477984 and 564418 and 575020 and 543552 and 642219 | % Response ([1]; conc. 100.0 µM): 105.654% and 87.8451% and 96.6012% and 102.875% and 103.779% and 107.689% and 115.982% and 114.344% and 115.781% | ClpC1-NTD peak area ([1]; conc. 100.0 µM): 756908 and 694227 and 2586172 and 1761383 and 2099655 and 509578 and 446745 and 481433 and 842128 | Microsomal Stability Human QH ([2]; Human): >88.400% | Microsomal Stability Human ([2]; clearance in microsomes): > 88 %Qh | MIC (Acinetobacter baumannii; Gram negative, n = 3 well replicates, read-out: MIC Acinetobacter baumanii): > 50 µM | MIC (Acinetobacter baumannii; Gram-Negative Bacteria, replicates 1-3, read-out: MIC Acinetobacter baumannii): > 50 µM and > 47 µg/mL
